Key:
[1] = test system: normal NK cells expanded with K562-aAPC; assay: percent inhibition of viability; higher = more inhibition; conditions: 72 h, IL-2 2.5 ng/mL
Experimental: (§1)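 Drug sensitivity and resistance testing on K562-aAPC-expanded normal NK cells: 5 concentrations (10-fold steps over a 10,000-fold range), 72 h at 37 °C, viability by CellTiter-Glo normalised to DMSO and benzethonium chloride controls; DSS from the fitted curve.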

DERL-7 (IL-2 2.5 ng/mL) [2] = assay: as above; conditions: 72 h
IMC-1 (IL-2 20 ng/mL) [3] = assay: as above; conditions: 72 h
KAI3 (IL-2 2.5 ng/mL) [4] = assay: as above; conditions: 72 h
KHYG-1 (IL-2 2.5 ng/mL) [5] = assay: as above; conditions: 72 h
NK-92 (IL-2 2.5 ng/mL) [6] = assay: as above; conditions: 72 h
NK-YS (IL-2 2.5 ng/mL) [7] = assay: as above; conditions: 72 h
NKL (IL-2 2.5 ng/mL) [8] = assay: as above; conditions: 72 h
SNK-6 (IL-2 2.5 ng/mL) [9] = assay: as above; conditions: 72 h
YT (IL-2 2.5 ng/mL) [10] = assay: as above; conditions: 72 h
[11] = test system: normal primary NK cells, pool 1 (3 donors) (IL-2 2.5 ng/mL); assay: as above; conditions: 72 h
[12] = test system: normal primary NK cells, pool 1 (3 donors), resting (IL-2 0 ng/mL); assay: as above; conditions: 72 h
[13] = test system: normal primary NK cells, pool 2 (3 donors) (IL-2 2.5 ng/mL); assay: as above; conditions: 72 h
[14] = test system: normal primary NK cells, pool 3 (3 donors) (IL-2 2.5 ng/mL); assay: as above; conditions: 72 h
[15] = test system: normal NK cells expanded with K562-aAPC; assay: drug sensitivity score (DSS) (DSS units); higher = more sensitive; extreme values may be limits of the assay; conditions: 72 h; IL-2 2.5 ng/mL
Experimental: as §1

DERL-7 (IL-2 2.5 ng/mL) [16] = assay: as above; conditions: 72 h
IMC-1 (IL-2 20 ng/mL) [17] = assay: as above; conditions: 72 h
KAI3 (IL-2 2.5 ng/mL) [18] = assay: as above; conditions: 72 h
KHYG-1 (IL-2 2.5 ng/mL) [19] = assay: as above; conditions: 72 h
NK-92 (IL-2 2.5 ng/mL) [20] = assay: as above; conditions: 72 h
NK-YS (IL-2 2.5 ng/mL) [21] = assay: as above; conditions: 72 h
NKL (IL-2 2.5 ng/mL) [22] = assay: as above; conditions: 72 h
SNK-6 (IL-2 2.5 ng/mL) [23] = assay: as above; conditions: 72 h
YT (IL-2 2.5 ng/mL) [24] = assay: as above; conditions: 72 h
[25] = test system: normal primary NK cells, pool 1 (3 donors) (IL-2 2.5 ng/mL); assay: as above; conditions: 72 h
[26] = test system: normal primary NK cells, pool 1 (3 donors), resting (IL-2 0 ng/mL); assay: as above; conditions: 72 h
[27] = test system: normal primary NK cells, pool 2 (3 donors) (IL-2 2.5 ng/mL); assay: as above; conditions: 72 h
[28] = test system: normal primary NK cells, pool 3 (3 donors) (IL-2 2.5 ng/mL); assay: as above; conditions: 72 h

Clc1ccc(Nc2nnc(Cc3ccncc3)c3ccccc23)cc1 [Vatalanib] (max concentration tested 10000 nM)
percent inhibition of viability [%]
Conditions | 1 nM | 10 nM | 100 nM | 1000 nM | 10000 nM
DERL-7 (IL-2 2.5 ng/mL) [2] | 1.72 | 5.91 | 0.68 | 4.05 | 0.46
IMC-1 (IL-2 20 ng/mL) [3] | -2.63 | 0.44 | 3.66 | 5.09 | 30.7
KAI3 (IL-2 2.5 ng/mL) [4] | 0.27 | -2.4 | -1.03 | -4.6 | 20.6
KHYG-1 (IL-2 2.5 ng/mL) [5] | 0.78 | 0.74 | 8.34 | 3.67 | 19.5
NK-92 (IL-2 2.5 ng/mL) [6] | 5.05 | 7.47 | 10.4 | 6.67 | 30.2
NK-YS (IL-2 2.5 ng/mL) [7] | 0.51 | -0.15 | 5.11 | 1.16 | 15.7
NKL (IL-2 2.5 ng/mL) [8] | -15.8 | -12.6 | -1.27 | 4.13 | 31.1
SNK-6 (IL-2 2.5 ng/mL) [9] | 9.43 | 19.1 | 24.5 | 8.51 | 0.02
YT (IL-2 2.5 ng/mL) [10] | -1.15 | 0.78 | 6.42 | -0.36 | 12.6
[1] | -5.26 | 1.3 | -1.96 | 9.03 | 9.76
[11] | -1.16 | -14.2 | -9.3 | -17.4 | -10.3
[12] | 8.82 | -6.33 | -5.39 | -29.3 | 12.2
[13] | -10.1 | -2.12 | -4.7 | -5.37 | 2.5
[14] | -15.5 | -8.9 | -5.65 | -2.32 | -4.9

Conditions | drug sensitivity score
DERL-7 (IL-2 2.5 ng/mL) [16] | 0
IMC-1 (IL-2 20 ng/mL) [17] | 2.18
KAI3 (IL-2 2.5 ng/mL) [18] | 0.45
KHYG-1 (IL-2 2.5 ng/mL) [19] | 0.55
NK-92 (IL-2 2.5 ng/mL) [20] | 2.23
NK-YS (IL-2 2.5 ng/mL) [21] | 0.39
NKL (IL-2 2.5 ng/mL) [22] | 2.05
SNK-6 (IL-2 2.5 ng/mL) [23] | 0
YT (IL-2 2.5 ng/mL) [24] | 0.07
[15] | 0
[25] | 0
[26] | 0.01
[27] | 0
[28] | 0

CCN(CC)CCOc1ccc(C(=C(Cl)c2ccccc2)c2ccccc2)cc1 [Clomifene] (max concentration tested 10000 nM)
percent inhibition of viability [%]
Conditions | 1 nM | 10 nM | 100 nM | 1000 nM | 10000 nM
DERL-7 (IL-2 2.5 ng/mL) [2] | 4.06 | 0.91 | 9.39 | 20.4 | 79.7
IMC-1 (IL-2 20 ng/mL) [3] | -0.71 | -1.19 | 4.94 | 7.46 | 81.3
KAI3 (IL-2 2.5 ng/mL) [4] | 3.86 | 7.81 | 10.3 | 17.6 | 99.2
KHYG-1 (IL-2 2.5 ng/mL) [5] | 0.74 | -4.89 | 7.01 | 8.03 | 98
NK-92 (IL-2 2.5 ng/mL) [6] | -3.93 | -4.07 | 20.1 | 22.8 | 99.2
NK-YS (IL-2 2.5 ng/mL) [7] | -0.14 | 0.6 | 4.95 | 5.57 | 51.9
NKL (IL-2 2.5 ng/mL) [8] | 9.73 | -5.45 | 18.5 | 9.46 | 89.1
SNK-6 (IL-2 2.5 ng/mL) [9] | 23.4 | 4.68 | 23.5 | 22.9 | 96.8
YT (IL-2 2.5 ng/mL) [10] | 2.71 | -4.92 | 7.54 | 1.85 | 97.5
[1] | -4.27 | -4.95 | 6.21 | 5.94 | 49.9
[11] | -14.7 | -1.65 | -8.5 | 6.72 | 89.3
[12] | -1.08 | 10.5 | -7.5 | 11 | 90.7
[13] | -3.18 | -2.06 | -0.72 | 14.9 | 80.9
[14] | 2.17 | 1.82 | -1.1 | 13.6 | 53.4

Conditions | drug sensitivity score
DERL-7 (IL-2 2.5 ng/mL) [16] | 7.34
IMC-1 (IL-2 20 ng/mL) [17] | 5.71
KAI3 (IL-2 2.5 ng/mL) [18] | 8.38
KHYG-1 (IL-2 2.5 ng/mL) [19] | 6.7
NK-92 (IL-2 2.5 ng/mL) [20] | 8.7
NK-YS (IL-2 2.5 ng/mL) [21] | 3.68
NKL (IL-2 2.5 ng/mL) [22] | 6.51
SNK-6 (IL-2 2.5 ng/mL) [23] | 8.37
YT (IL-2 2.5 ng/mL) [24] | 5.67
[15] | 3.63
[25] | 5.98
[26] | 6.86
[27] | 6.93
[28] | 4.97

NC(=S)N/N=C/c1ncccc1N [Triapine] (max concentration tested 10000 nM)
percent inhibition of viability [%]
Conditions | 1 nM | 10 nM | 100 nM | 1000 nM | 10000 nM
DERL-7 (IL-2 2.5 ng/mL) [2] | -1.06 | 2.72 | -5.08 | -8.15 | 97.7
IMC-1 (IL-2 20 ng/mL) [3] | -5.06 | 0.28 | -5.51 | -12.1 | 98
KAI3 (IL-2 2.5 ng/mL) [4] | -5.83 | 4.79 | 3.83 | 32.7 | 93.6
KHYG-1 (IL-2 2.5 ng/mL) [5] | -1.53 | -0.9 | -1.65 | 73.7 | 97.9
NK-92 (IL-2 2.5 ng/mL) [6] | -11.5 | -5.21 | -2.75 | 61.1 | 90.6
NK-YS (IL-2 2.5 ng/mL) [7] | -1.66 | -1.59 | -1.57 | 26.8 | 95.1
NKL (IL-2 2.5 ng/mL) [8] | -2.42 | -1.96 | -11.9 | -7.16 | 92.3
SNK-6 (IL-2 2.5 ng/mL) [9] | 4.11 | 13 | 14.7 | -6.98 | 89.7
YT (IL-2 2.5 ng/mL) [10] | 0.85 | 0.16 | -3.39 | -10 | 74.8
[1] | -2.67 | -8.24 | -2.71 | 55 | 64.6
[11] | -6.36 | -11 | -8.82 | 4.76 | 57.7
[12] | -6.48 | -20.7 | -16.6 | 22.7 | 85.8
[13] | -9.87 | -3.04 | -3.45 | 8.38 | 40
[14] | -6.53 | -8.38 | -5.12 | 15.8 | 38.7

Conditions | drug sensitivity score
DERL-7 (IL-2 2.5 ng/mL) [16] | 4.86
IMC-1 (IL-2 20 ng/mL) [17] | 4.69
KAI3 (IL-2 2.5 ng/mL) [18] | 9.5
KHYG-1 (IL-2 2.5 ng/mL) [19] | 13.8
NK-92 (IL-2 2.5 ng/mL) [20] | 12.1
NK-YS (IL-2 2.5 ng/mL) [21] | 9.25
NKL (IL-2 2.5 ng/mL) [22] | 4.61
SNK-6 (IL-2 2.5 ng/mL) [23] | 4.48
YT (IL-2 2.5 ng/mL) [24] | 3.49
[15] | 10.1
[25] | 3.86
[26] | 8.2
[27] | 3.34
[28] | 4.03
